Entries after “also recorded” stand apart in the source; their conditions may differ. Read-outs that look alike come from different tables or passages of the source. Where a SMILES comes first, the peptide text is derived from it. Where no end group is shown, it is not given here. The star is where a group is joined. X1 = CC/C=C\C/C=C\C/C=C\C/C=C\C/C=C\CCCC(=O)*; Fmoc = O=C(OCC1c2ccccc2-c2ccccc21)*; Palmitoyl = CCCCCCCCCCCCCCCC(=O)*; Lauroyl = CCCCCCCCCCCC(=O)*; Nonanoyl = CCCCCCCCC(=O)*
How the values were obtained:
[1] = Zeta-potential measurement (dynamic light scattering); assay type: physicochemical
[2] = TEM of peptide assemblies (fibril formation / assembly); assay type: physicochemical; set-up: key to Fibril Formation: "1" means fibril formation observed; "0" means no fibrils observed; conditions: for TEM morphology (in words): 1 mg/mL in PBS; for Assembly without hydrophob residue: corresponding peptide without hydrophobic moiety; for Assembly: peptide amphiphile; for Fibril Formation: via TEM
How it was run: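 Peptides predissolved in DMSO at 10 mg/mL (stock), diluted in PBS to 650 µM or 1 mg/mL final and incubated 1 d at rt (20–25 °C) to form fibrils. Other concentrations obtained by diluting preformed fibrils; assemblies imaged by TEM.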

[3] = ATR-FT-IR determination of β-sheet content; assay type: physicochemical; conditions: 1 mg/mL in PBS lyophilized; integral at 1630 cm^-1 relative to 1650-1700 cm^-1
How it was run: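 From second-derivative spectra, β-sheet amount is the 1630 cm-1 integral over the 1650-1700 cm-1 (native) region. Spectra were taken on solid, lyophilized fibrils via diamond-crystal ATR, averaging 64 scans at 2 cm^-1 resolution.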

[4] = Fluorescence microscopy of ThT-stained fibrils (µm-sized aggregates); assay type: physicochemical; conditions: for fluorescent, µm-sized aggregates (ThT staining): 1 mg/mL stained with 50 µM ThT
How it was run: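 Fibrils (1 mg mL^-1) mixed 1:9 with 50 µM ThT, giving 0.1 mg mL^-1 stained fibrils on glass. Imaged under 10x air objective with excitation 480/40 nm and emission 527/30 nm. Fibrils called distinct when no visible structures appeared in fluorescence or brightfield.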

[5] = Zeta-potential measurement (dynamic light scattering); assay type: physicochemical; conditions: for Count Rate / kcps: derived count rate of scattered light during zeta-potential measurements
Description: Zeta-potential: 60 µL of the peptides (1 mg mL-1) were diluted in 600 µL, 1 mM KCI solution and placed in a disposable folded capillary cuvette. All zeta-potential measurements were conducted by dynamic light scattering technology (Zetasizer, Malvern Instruments) and in triplicates for each sample. The derived count rate of the zeta potential measurement was used as information on the light scattering intensity and turbidity of the sample as a further indicator for microscopic aggregation.

HeLa cells = assay: Confocal laser scanning microscopy and degradation study with PA library and HeLa cells; assay type: cell-based; conditions: for association with cellular membranes: 2 µg added to 20.000 HeLa cells, 30 min; for degradability (in words) / Degradability / % (rel. to initial particles > 10 µm^2): HeLa cells; for degradability (in words): 3 days; for Degradability / % (rel. to initial particles > 10 µm^2): 3 d relative to 30 min; for aggregate number decreases / degraded in presence of HeLa cells within 3 days: d3 relative to d0
How it was run: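 HeLa cells (20,000/well) got Proteostat-stained PAs (2 µg peptide per 20.000 cells) with Hoechst nuclear stain, 30 min at 37°C, PBS-washed, then held 3 d at 37°C unwashed. Confocal imaging at d0 and d3 counted aggregates >10 µm^2 in 1008 × 1008 µm, three technical replicates. Degradation taken as d3/d0 aggregate number.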

[6] = Thioflavin T (ThT) fluorescence assay; assay type: physicochemical; conditions: relative to PBS control
Description: Transmission electron microscopy (TEM) measurements, Thioflavin (ThT), zeta-potential measurements for fibril characterization were prepared and conducted according to prior art procedures. […] Fibrils were defined as distinct, if no visible structures could be identified in fluorescence and brightfield microscopy. A peptide fibril was considered as ThT-active if the fluorescence intensity was at least twice as strong compared to the control (PBS containing 10% DMSO).

HIV-1 = conditions: for Infectivity enhancing N fold at 1.3 µM: relative to virus only; for enhancement of HIV-1 infection / transduction (in words): 6.5 µM, 1.3 µM, 0.26 µM;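 as to all read-outs here: TZM-bl reporter cells exposed to HIV-1 with peptide fibrils, infection read out as β-galactosidase luminescence, compared with virus alone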
Description: HIV-1 Infection Assay with TZM-bl cells: The effect of peptide fibrils on HIV-1 infection was studied via a luminescence assay for β-galactosidase, which was reported by TZM-bl cells upon infection. The HIV-1 infection assay was conducted in three technical replicates and repeated in three independent experiments unless stated otherwise.

Compound | Zeta-Potential / mV [1] [mV] | TEM morphology (in words) [2] | Assembly without hydrophob residue [2] | Assembly [2] | Fibril Formation ([2]; hydrophobic moiety exchange) | β-sheet amount [3] [%] | formation of µm-sized aggregates in aqueous medium / PBS (in words) [4] | fluorescent, µm-sized aggregates (ThT staining) [4] | zeta-potential (in words) [5] | Count Rate / kcps [5] [kcps] | association with cellular membranes (HeLa cells) | degradability (in words) (HeLa cells) | Degradability / % (rel. to initial particles > 10 µm^2) (HeLa cells) [%] | aggregate number decreases / degraded in presence of HeLa cells within 3 days (HeLa cells) [%] | N-fold ThT-fluorescence [6] | enhances infectivity at 1.3 µM concentration, times more efficient compared to virus only infection (HIV-1) [times] | Infectivity enhancing N fold at 1.3 µM (HIV-1) [N fold] | enhancement of HIV-1 infection / transduction (in words) (HIV-1) | Fibril Formation ([2]; linkage chemistry exchange) | other results
CCCCCCCCCCCC(=O)N[C@H](C(=O)N[C@H](C(=O)N[C@H](C(=O)N[C@@H](C)C(=O)N[C@@H](C)C(=O)N[C@@H](C)C(=O)N[C@@H](CCCCN)C(=O)N[C@@H](CCCCN)C(=O)N[C@@H](CCCCN)C(N)=O)C(C)C)C(C)C)C(C)C [Pat7] (Lauroyl-VVVAAAKKK-NH2) | 19.4 | able to form fibrils; also recorded: fibrillar morphologies | No | Yes | 1 | 49 | form µm-sized aggregates | fluorescent, µm-sized aggregates | positive zeta-potential | 3558.1 | association with cellular membranes | non-degradable PA | -32 | 32 | 185.7 | 6 | 6±1 | – | – | –
CCCCCCCCC(=O)N[C@H](C(=O)N[C@H](C(=O)N[C@H](C(=O)N[C@@H](C)C(=O)N[C@@H](C)C(=O)N[C@@H](C)C(=O)N[C@@H](CCCCN)C(=O)N[C@@H](CCCCN)C(=O)N[C@@H](CCCCN)C(N)=O)C(C)C)C(C)C)C(C)C [Pat8] (Nonanoyl-VVVAAAKKK-NH2) | 13.5 | formed fibrils in aqueous medium; also recorded: fibrillar morphologies | No | Yes | 1 | 49 | failed to form µm-sized aggregates in aqueous medium | fluorescent, µm-sized aggregates | – | 77.2 | association with cellular membranes | non-degradable PA | 78 | 78 | 37.1 | – | 2±0 | – | – | infectivity enhancement at 1.3 µM concentration compared to virus only infection (in words) (HIV-1): does not enhance infectivity
CC/C=C\C/C=C\C/C=C\C/C=C\C/C=C\CCCC(=O)N[C@H](C(=O)N[C@H](C(=O)N[C@H](C(=O)N[C@@H](C)C(=O)N[C@@H](C)C(=O)N[C@@H](C)C(=O)N[C@@H](CCCCN)C(=O)N[C@@H](CCCCN)C(=O)N[C@@H](CCCCN)C(N)=O)C(C)C)C(C)C)C(C)C [Pat10] (X1-VVVAAAKKK-NH2) | 16.9 | able to form fibrils; also recorded: condensed spherical structures composed of fibrils | No | Yes | 1 | 51 | form µm-sized aggregates | fluorescent, µm-sized aggregates | positive zeta-potential | 6069.8 | association with cellular membranes | degradable PA | 99 | 99 | 61.9 | 12 | 12±1 | showed infectivity enhancement | – | enhancement of HIV-1 infection / transduction (in words) (HIV-1; listed as peptide amphiphile with eicosapentaenoic acid (EPA)): even stronger infectivity enhancement than the reference compounds EF-C or PA1
CC(C)[C@H](NC(=O)OCC1c2ccccc2-c2ccccc21)C(=O)N[C@H](C(=O)N[C@H](C(=O)N[C@@H](C)C(=O)N[C@@H](C)C(=O)N[C@@H](C)C(=O)N[C@@H](CCCCN)C(=O)N[C@@H](CCCCN)C(=O)N[C@@H](CCCCN)C(N)=O)C(C)C)C(C)C [Pat12] (Fmoc-VVVAAAKKK-NH2) | 15.2 | able to form fibrils; also recorded: fibrillar morphologies | No | Yes | 1 | 52 | form µm-sized aggregates | fluorescent, µm-sized aggregates | positive zeta-potential | 509.5 | association with cellular membranes | non-degradable PA | 28 | 28 | 269.9 | 5 | 5±1 | showed infectivity enhancement | – | –
C16-ester-SVVVAAAKKK-NH2 (S(Palmitoyl)VVVAAAKKK-NH2; N-terminus assumed; SMILES CCCCCCCCCCCCCCCC(=O)OC[C@H](N)C(=O)N[C@H](C(=O)N[C@H](C(=O)N[C@H](C(=O)N[C@@H](C)C(=O)N[C@@H](C)C(=O)N[C@@H](C)C(=O)N[C@@H](CCCCN)C(=O)N[C@@H](CCCCN)C(=O)N[C@@H](CCCCN)C(N)=O)C(C)C)C(C)C)C(C)C) [Pat1] | 20.5 | fibrillar morphologies | No | Yes | – | 43 | – | fluorescent, µm-sized aggregates | – | 3217.3 | association with cellular membranes | degraded well, but not as efficient as PA1 or Pat3; also recorded: degradable PA | 31 | 30 | 277.1 | 17 | 17±5 | – | 1 | –
C16-thioester-CVVVAAAKKK-NH2 (C(Palmitoyl)VVVAAAKKK-NH2; N-terminus assumed; SMILES CCCCCCCCCCCCCCCC(=O)SC[C@H](N)C(=O)N[C@H](C(=O)N[C@H](C(=O)N[C@H](C(=O)N[C@@H](C)C(=O)N[C@@H](C)C(=O)N[C@@H](C)C(=O)N[C@@H](CCCCN)C(=O)N[C@@H](CCCCN)C(=O)N[C@@H](CCCCN)C(N)=O)C(C)C)C(C)C)C(C)C) [Pat3] | 18.3 | fibrillar morphologies | No | Yes | – | 50 | – | fluorescent, µm-sized aggregates | – | 2058.5 | association with cellular membranes | degradable PA | 87 | 87 | 166.1 | 11 | 11±4 | potent enhancers of HIV-1 infection | 1 | –

From patent EP4458977A1, “SELF-ASSEMBLING PEPTIDE AMPHIPHILES AS RETROVIRAL TRANSDUCTION ENHANCERS” (Max-Planck-Gesellschaft zur Förderung der Wissenschaften …, priority 2023, dated 2024)
